The structures appear in SMILES notation.

The target in one assay is T1, ERK2 (Homo sapiens, UniProt P28482).
T1 construct: purchased DiscoveRx (Fremont, CA)
Nature of the assay: KinomeScan. The following applies: read-out: % Control. In kind it is binding.

In another assay the target is T2, Ghrelin (Homo sapiens, UniProt Q92847).
T2 construct: host or cells: Chem-1 cells expressing Gα15
Nature of the assay: GPCR Profiler. Type of assay: cell-based.

Another assay concerns the target T3, TGFBR1 (Homo sapiens, UniProt P36897).
T3 construct: purchased DiscoveRx (Fremont, CA)
Description: KinomeScan. In kind it is binding. The conditions noted are these: read-out: % Control.

The next assay has as its target T4, MST4 (Homo sapiens, UniProt Q9P289).
T4 construct: purchased DiscoveRx
Description: KinomeScan. Type of assay: binding. The following applies: read-out: % Control.

The next assay concerns the target T5, MLK3 (Homo sapiens, UniProt Q16584).
T5 construct: purchased DiscoveRx
Nature of the assay: KinomeScan. The conditions noted are these: read-out: % Control. Type of assay: binding.

For a further assay, the target named is T6, SRPK3 (Homo sapiens, UniProt Q9UPE1).
T6 construct: purchased DiscoveRx (Fremont, CA)
Description: KinomeScan. In kind it is binding. The following applies: read-out: % Control.

The target of a further assay is T7, MYLK4 (Homo sapiens, UniProt Q86YV6).
T7 construct: purchased DiscoveRx
Description: KinomeScan. The following applies: read-out: % Control. Type of assay: binding.

Another assay addresses T8, BMPR2 (Homo sapiens, UniProt Q13873).
T8 construct: purchased DiscoveRx (Fremont, CA)
Nature of the assay: KinomeScan. In kind it is binding. The following applies: read-out: % Control.

The target in a further assay is T9, HPK1 (Homo sapiens, UniProt Q92918).
T9 construct: purchased DiscoveRx (Fremont, CA)
Nature of the assay: KinomeScan. Type of assay: binding. The following applies: read-out: % Control.

The target of a further assay is T10, BMX (Homo sapiens, UniProt P51813).
T10 construct: purchased DiscoveRx (Fremont, CA)
Description: KinomeScan. The following applies: read-out: % Control. In kind it is binding.

A further assay deals with T11, PAK4 (Homo sapiens, UniProt O96013).
T11 construct: purchased DiscoveRx
Nature of the assay: KinomeScan. Type of assay: binding. The conditions noted are these: read-out: % Control.

The next assay addresses T12, Motilin (Homo sapiens, UniProt O43193).
T12 construct: host or cells: Chem-1 cells expressing Gα15
Description: GPCR Profiler. Type of assay: cell-based.

For a further assay, the target named is T13, HUNK (Homo sapiens, UniProt P57058).
T13 construct: purchased DiscoveRx (Fremont, CA)
Nature of the assay: KinomeScan. In kind it is binding. The following applies: read-out: % Control.

The target of the next assay is T14, PIK3CA(I800L) (Homo sapiens, UniProt P42336, I800L).
T14 construct: purchased DiscoveRx (Fremont, CA)
Description: KinomeScan. Type of assay: binding. The conditions noted are these: read-out: % Control.

Another assay has as its target T15, KIT(L576P) (Homo sapiens, UniProt P10721, L576P).
T15 construct: purchased DiscoveRx
Nature of the assay: KinomeScan. In kind it is binding. The conditions noted are these: read-out: % Control.

Another assay deals with T16, YANK3 (Homo sapiens, UniProt Q86UX6).
T16 construct: purchased DiscoveRx
Nature of the assay: KinomeScan. The following applies: read-out: % Control. In kind it is binding.

For another assay, the target named is T17, GAL1 (Homo sapiens, UniProt P47211).
T17 construct: host or cells: Chem-1 cells expressing Gα15
Nature of the assay: GPCR Profiler. Type of assay: cell-based.

The next assay concerns the target T18, CaS (Homo sapiens, UniProt P41180).
T18 construct: host or cells: Chem-1 cells with promiscuous Gα15
Description: GPCR Profiler. In kind it is cell-based.

A further assay concerns the target T19, MUSK (Homo sapiens, UniProt O15146).
T19 construct: purchased DiscoveRx
Description: KinomeScan. Type of assay: binding. The following applies: read-out: % Control.

In another assay the test system is U-138 MG. Nature of the assay: Cell Titer-Glo viability, Glioblastoma. Type of assay: cell-based. The following applies: 72 hours. The procedure: (§1) OGM2 kills wide variety of cancer cell types. Cell sensitivity can be classified in to Very Sensitive (LC50<2 μM), Sensitive (LC50=2 to 10 μM), Mildly Sensitive (LC50>10 μM), and Refractory (no killing at 10 μM). The listed established cell were incubated with OGM2 at 2 μM or 10 μM for 72 hours under standard cell culture conditions, and relative cell number was assessed using Cell Titer-Glo Luminescent Cell Viability Assay (Promega™) following the manufacturer's instructions. Luminescence was determined using a Cytation 5 reader and Gen5 software package (BioTek™).
(§2) Cancer cells, which are very sensitive to killing by OGM2 (LCs <2 μM), with reported mRNA expression of GPR68 and the related proton sensing receptor GPR4. LC50's (concentrations causing 50% lethality) were determined using CellTiter-Glo (Promega™, G7570). Cells were plated in 12-well plates (CELLTREAT Scientific Products, 229112) in 1 ml of DMEM with high glucose, GlutaMAX, HEPES, or RPMI 1640 with Penicillin-Streptomycin (ThermoFisher™, 10564029, 11875119 and 15140122) and 10% FBS. Cells were incubated overnight at 37° C. in 5% CO2. Then 1 mL of fresh media was added with DMSO, OGM, or positive control (Erastin; APExBIO Technology, LLC, B1524) and cells incubated for 3 days. On the third day, all media was removed, cells were rinsed with 1×PBS, PBS was removed, and 200 μL of 1× Passive Lysis Buffer (Promega™, E1941) was added to each well. […]. Subsequently, 20 μL of lysate was added to 100 μL CellTiter-Glo™ reagent on a LUMITRAC 200 plate (Greiner™ bio-one, 82050-726). Plates were briefly spun down and read on a GloMax-Multi Detection System (Promega™).
(§3) The cells listed in the tables above were incubated with OGM2 at 2 μM or 10 μM for 72 hours under standard cell culture conditions, and relative cell number was assessed using Cell Titer-Glo Luminescent Cell Viability Assay (Promega™) following the manufacturer's instructions. Luminescence was determined using a Cytation 5 reader and Gen5 software package (BioTek™). RNA expression of GPR68 and GPR4 in the corresponding cancer cell lines are listed, according to the publicly available The Human Protein Atlas version 22.0 and Ensembl version 103.38 (see proteinatlas.org). The consensus normalized expression value (“nTPM”=normalize transcript per million) was calculated as the maximum nTPM value for each gene in the two data sources.

For a further assay, the system named is GL261Luc. Description: Cell Titer-Glo viability, Glioblastoma. Type of assay: cell-based. As to the method: as §1, §2, §3
On the technique in general: Cellular ATP, detected with luciferase, serves as a proxy for viable cell number.

In another assay the test system is U-87 MG. Description: Cell Titer-Glo viability, Glioblastoma. The following applies: 72 hours. In kind it is cell-based. As to the method:
as §1, §2, §3

The test system of a further assay is KR-158-luc. Description: Cell Titer-Glo viability, Glioblastoma. Type of assay: cell-based. The procedure:
as §1, §2, §3

The test system of a further assay is REC-1. Description: Cell Titer-Glo viability, B-cell lymphoma. In kind it is cell-based. The following applies: 72 hours. The procedure: as §1
as §2, with “Subsequently, 20 μL of lysate was added to 100 μL CellTiter-Glo™ reagent on a LUMITRAC 200 plate (Greiner™ bio-one, 82050-726).” left out
The cells listed in the tables above were incubated with OGM2 at 2 μM or 10 μM for 72 hours under standard cell culture conditions, and relative cell number was assessed using Cell Titer-Glo Luminescent Cell Viability Assay (Promega™) following the manufacturer's instructions. Luminescence was determined using a Cytation 5 reader and Gen5 software package (BioTek™). […] The consensus normalized expression value (“nTPM”=normalize transcript per million) was calculated as the maximum nTPM value for each gene in the two data sources.

T17 sequence (P47211 whole entry): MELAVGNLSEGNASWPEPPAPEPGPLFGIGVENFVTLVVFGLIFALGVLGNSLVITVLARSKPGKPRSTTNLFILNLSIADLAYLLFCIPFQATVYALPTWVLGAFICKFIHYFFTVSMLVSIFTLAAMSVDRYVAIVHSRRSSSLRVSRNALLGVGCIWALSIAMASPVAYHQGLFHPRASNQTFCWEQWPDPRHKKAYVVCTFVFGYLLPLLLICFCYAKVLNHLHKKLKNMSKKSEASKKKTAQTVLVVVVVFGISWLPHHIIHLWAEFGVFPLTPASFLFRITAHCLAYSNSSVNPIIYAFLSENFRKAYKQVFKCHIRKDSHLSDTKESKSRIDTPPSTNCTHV
T12 sequence (O43193 whole entry): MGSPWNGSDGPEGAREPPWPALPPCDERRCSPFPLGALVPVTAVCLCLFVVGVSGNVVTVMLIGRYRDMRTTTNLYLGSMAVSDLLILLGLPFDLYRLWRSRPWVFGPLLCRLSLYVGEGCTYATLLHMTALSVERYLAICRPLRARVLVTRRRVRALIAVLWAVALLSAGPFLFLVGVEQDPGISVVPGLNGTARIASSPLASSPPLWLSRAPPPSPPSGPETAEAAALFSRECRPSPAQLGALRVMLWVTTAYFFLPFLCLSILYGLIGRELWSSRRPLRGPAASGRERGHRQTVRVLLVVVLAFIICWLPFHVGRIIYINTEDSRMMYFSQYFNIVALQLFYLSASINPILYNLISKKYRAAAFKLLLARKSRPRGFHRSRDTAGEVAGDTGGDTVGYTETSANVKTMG
T18 sequence (P41180 20-1078): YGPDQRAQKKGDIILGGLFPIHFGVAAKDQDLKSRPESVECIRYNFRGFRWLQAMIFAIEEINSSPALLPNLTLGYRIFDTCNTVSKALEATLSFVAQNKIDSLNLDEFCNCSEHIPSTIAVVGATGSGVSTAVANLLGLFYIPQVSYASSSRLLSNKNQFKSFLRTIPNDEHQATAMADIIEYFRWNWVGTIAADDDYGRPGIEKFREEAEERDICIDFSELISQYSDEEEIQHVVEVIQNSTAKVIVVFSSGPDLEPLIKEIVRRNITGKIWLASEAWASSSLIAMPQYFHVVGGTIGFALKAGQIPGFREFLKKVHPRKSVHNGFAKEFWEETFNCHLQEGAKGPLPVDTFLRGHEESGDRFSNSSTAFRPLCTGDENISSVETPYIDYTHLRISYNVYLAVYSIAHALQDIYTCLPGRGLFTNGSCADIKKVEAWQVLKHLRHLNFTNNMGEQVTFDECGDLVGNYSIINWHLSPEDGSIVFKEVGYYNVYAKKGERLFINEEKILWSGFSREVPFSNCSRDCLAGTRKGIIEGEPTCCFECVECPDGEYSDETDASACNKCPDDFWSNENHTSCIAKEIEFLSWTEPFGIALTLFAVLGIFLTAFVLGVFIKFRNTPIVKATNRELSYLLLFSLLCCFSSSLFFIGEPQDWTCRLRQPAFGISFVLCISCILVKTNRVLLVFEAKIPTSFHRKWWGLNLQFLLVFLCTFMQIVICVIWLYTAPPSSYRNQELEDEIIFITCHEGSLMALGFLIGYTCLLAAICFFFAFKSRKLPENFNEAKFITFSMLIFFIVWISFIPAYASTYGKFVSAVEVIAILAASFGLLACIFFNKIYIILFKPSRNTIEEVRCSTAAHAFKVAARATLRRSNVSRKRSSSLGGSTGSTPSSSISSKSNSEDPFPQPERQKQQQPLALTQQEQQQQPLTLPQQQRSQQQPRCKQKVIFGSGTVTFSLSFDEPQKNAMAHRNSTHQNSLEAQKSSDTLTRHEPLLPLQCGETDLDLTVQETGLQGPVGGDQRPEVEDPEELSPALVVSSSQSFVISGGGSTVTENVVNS
T2 sequence (Q92847 whole entry): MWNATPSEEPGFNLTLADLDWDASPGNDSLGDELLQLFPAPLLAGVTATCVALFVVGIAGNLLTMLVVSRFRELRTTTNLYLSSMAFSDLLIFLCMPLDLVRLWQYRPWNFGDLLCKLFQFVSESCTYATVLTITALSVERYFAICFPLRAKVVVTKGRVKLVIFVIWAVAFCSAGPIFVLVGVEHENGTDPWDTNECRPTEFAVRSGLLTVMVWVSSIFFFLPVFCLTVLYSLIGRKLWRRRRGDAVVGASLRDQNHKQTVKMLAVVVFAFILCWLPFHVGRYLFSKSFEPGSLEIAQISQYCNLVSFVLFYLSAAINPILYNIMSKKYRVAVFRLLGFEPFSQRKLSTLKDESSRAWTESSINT
T6 sequence (Q9UPE1 whole entry): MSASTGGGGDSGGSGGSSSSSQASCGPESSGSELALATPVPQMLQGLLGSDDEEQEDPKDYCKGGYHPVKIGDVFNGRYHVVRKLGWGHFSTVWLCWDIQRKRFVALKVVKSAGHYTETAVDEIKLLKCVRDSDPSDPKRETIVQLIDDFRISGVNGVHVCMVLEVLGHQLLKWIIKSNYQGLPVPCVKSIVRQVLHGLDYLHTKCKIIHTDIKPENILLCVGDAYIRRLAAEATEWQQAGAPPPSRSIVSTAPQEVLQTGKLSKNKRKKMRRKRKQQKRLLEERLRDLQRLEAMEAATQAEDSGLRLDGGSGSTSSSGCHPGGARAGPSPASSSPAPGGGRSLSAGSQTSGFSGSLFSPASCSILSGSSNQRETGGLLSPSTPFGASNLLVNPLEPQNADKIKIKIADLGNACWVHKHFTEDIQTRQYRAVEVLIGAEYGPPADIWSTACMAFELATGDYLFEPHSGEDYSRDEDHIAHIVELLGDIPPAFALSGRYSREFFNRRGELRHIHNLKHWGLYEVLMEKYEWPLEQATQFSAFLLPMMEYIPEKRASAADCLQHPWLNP
T9 sequence (Q92918 whole entry): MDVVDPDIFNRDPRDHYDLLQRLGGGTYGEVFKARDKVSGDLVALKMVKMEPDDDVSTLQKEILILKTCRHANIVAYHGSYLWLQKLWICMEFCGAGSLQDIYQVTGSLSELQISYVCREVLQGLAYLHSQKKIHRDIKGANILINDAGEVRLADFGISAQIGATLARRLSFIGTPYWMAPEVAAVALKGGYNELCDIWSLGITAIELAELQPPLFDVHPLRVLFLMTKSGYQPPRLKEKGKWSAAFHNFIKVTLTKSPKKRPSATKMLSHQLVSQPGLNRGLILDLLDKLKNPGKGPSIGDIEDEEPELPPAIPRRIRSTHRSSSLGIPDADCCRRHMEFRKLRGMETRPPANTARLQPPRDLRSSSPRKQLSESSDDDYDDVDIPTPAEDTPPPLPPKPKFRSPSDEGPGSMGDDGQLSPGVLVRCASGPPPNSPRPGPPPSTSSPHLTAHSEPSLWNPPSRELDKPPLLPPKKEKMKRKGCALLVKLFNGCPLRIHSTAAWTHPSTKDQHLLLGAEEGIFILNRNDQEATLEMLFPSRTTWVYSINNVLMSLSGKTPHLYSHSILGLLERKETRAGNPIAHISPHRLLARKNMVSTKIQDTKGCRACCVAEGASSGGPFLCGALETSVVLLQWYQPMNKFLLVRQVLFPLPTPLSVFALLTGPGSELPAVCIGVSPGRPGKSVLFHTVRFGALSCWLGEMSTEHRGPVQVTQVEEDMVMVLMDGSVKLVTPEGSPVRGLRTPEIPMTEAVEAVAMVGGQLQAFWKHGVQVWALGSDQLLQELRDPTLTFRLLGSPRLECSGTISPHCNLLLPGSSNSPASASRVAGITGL
T3 sequence (P36897 34-503): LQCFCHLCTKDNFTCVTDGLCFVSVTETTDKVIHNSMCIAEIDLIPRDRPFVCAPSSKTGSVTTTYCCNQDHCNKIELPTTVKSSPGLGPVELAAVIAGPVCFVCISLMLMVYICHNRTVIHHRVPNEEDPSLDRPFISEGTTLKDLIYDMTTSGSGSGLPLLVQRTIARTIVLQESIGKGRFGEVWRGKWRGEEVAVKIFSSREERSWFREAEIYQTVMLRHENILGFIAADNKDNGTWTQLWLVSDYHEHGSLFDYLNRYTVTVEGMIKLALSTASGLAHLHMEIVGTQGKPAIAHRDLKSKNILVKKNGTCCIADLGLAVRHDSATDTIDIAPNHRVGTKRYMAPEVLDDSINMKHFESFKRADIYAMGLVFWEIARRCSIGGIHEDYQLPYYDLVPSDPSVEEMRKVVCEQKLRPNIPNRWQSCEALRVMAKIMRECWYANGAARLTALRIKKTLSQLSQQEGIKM
T7 sequence (Q86YV6 whole entry): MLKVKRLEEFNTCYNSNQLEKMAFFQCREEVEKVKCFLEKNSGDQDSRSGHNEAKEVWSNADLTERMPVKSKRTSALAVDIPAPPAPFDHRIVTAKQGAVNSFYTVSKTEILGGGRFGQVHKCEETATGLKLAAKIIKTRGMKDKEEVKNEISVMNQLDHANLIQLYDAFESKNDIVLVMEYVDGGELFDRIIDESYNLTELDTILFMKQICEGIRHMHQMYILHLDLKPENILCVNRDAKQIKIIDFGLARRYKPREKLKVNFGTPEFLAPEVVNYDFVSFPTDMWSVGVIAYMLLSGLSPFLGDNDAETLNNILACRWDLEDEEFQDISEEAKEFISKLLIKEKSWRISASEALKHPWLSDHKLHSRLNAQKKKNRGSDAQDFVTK
T16 sequence (Q86UX6 whole entry): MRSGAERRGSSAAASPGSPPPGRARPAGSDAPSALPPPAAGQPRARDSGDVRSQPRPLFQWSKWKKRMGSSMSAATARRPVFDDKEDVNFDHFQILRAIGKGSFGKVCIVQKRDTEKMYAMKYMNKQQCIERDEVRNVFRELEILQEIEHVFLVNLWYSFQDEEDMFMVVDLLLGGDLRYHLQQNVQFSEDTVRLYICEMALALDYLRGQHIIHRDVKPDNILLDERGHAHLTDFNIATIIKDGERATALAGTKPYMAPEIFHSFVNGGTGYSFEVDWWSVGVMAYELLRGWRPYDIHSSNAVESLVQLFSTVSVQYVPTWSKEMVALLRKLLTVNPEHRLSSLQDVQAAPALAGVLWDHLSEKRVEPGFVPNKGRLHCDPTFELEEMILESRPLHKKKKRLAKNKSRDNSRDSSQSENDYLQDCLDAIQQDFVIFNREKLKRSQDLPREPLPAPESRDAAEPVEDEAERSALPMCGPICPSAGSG

Regarding `CCc1ccc2c(c1)C1(NN=C(c3cccc4ccccc34)S1)C(=O)N2` (stereo not shown) [OGM1, 5-ethyl-5′-naphthalen-1-ylspiro[1H-indole-3,2′-3H-1,3,4-thiadiazole]-2-one], the remaining binding at 10 µM at ERK2 stood at 77%; on TGFBR1 it was 100%; at MST4, 81%; at MLK3, 100%; at SRPK3, 100%; at MYLK4, 98%. The remaining binding at 10 µM at BMPR2 was determined as 92%; at HPK1 it was 100%; on BMX, 100%; at PAK4 it was 66%; on HUNK it was 83%; at PIK3CA(I800L), 100%. Besides, the values for the remaining binding at 10 µM on KIT(L576P), on YANK3 and on MUSK were 82%, 100% and 90%, respectively. The Antagonism is −6.1 on Ghrelin (10 uM), −0.7 on Motilin (10 uM), −7.3 on GAL1 (10 uM) and −3.6 at CaS (10 uM). For the same compound, the Agonism on Ghrelin (12.5 uM) is recorded as 0.3; at Motilin (12.5 uM), 1; at GAL1 (12.5 uM), 1.6; at CaS (12.5 uM), −1.2.
As to `CCc1ccc2c(c1)C1(NN=C(c3ccccc3)S1)C(=O)N2` (stereo not shown) [OGM2], the “% Survival 2 μM OGM” value with U-138 MG stood at 40.3%; in the assay on GL261Luc (72 hours), 1.8%; with U-87 MG it was 21.3%; in the assay on KR-158-luc (72 hours), 11.4%; with REC-1 it was 0.7%. In addition, the “% Survival 10 μM OGM” value in the assay on U-138 MG was determined as 35.0%; with GL261Luc (72 hours), 0.1%; in the assay on U-87 MG it was 10.1%; with KR-158-luc (72 hours), 4.7%; in the assay with REC-1, 0.0%. The CC50 is less than 2000 nM in the assay with U-138 MG (Homo sapiens, U138-MG, read-out: LC50 (the source's name)); less than 2000 nM in the assay with GL261Luc (Mus musculus, GL261-Luc, 72 hours, read-out: LC50 (the source's name)); less than 2000 nM with U-87 MG (Homo sapiens, U-87 MG, read-out: LC50 (the source's name)); less than 2000 nM with KR-158-luc (Mus musculus, 72 hours, read-out: LC50 (the source's name)); less than 2000 nM with REC-1 (Homo sapiens, Rec1, read-out: LC50 (the source's name)). For the same compound, the Class entry in the assay with GL261Luc and with KR-158-luc was “Very Sensitive (Very Sensitive (LC50<2 μM))” in each case.

(Values after US20240327364A1, “THERAPEUTIC TARGETING OF GPR68 TO INDUCE FERROPTOSIS” (University Of Maryland, Baltimore, priority 2023, published 2024).)
